Read-outs that look alike come from different tables or passages of the source.
What was measured:
D189Q hMC4R [1] = molecular target: T1, D189Q hMC4R (Homo sapiens, UniProt P32245, D189Q); assay: cAMP AlphaScreen agonist / inverse agonist assay; type: cell-based; conditions: for Inverse agonist percent decrease from basal activity: D189Q hMC4R
D189S hMC4R [2] = molecular target: T2, D189S hMC4R (Homo sapiens, UniProt P32245, D189S); assay: cAMP AlphaScreen agonist / inverse agonist assay; type: cell-based; conditions: D189S hMC4R
wildtype hMC4R [3] = molecular target: T3, wildtype hMC4R (Homo sapiens, UniProt P32245); assay: cAMP AlphaScreen agonist / inverse agonist assay; type: cell-based; conditions: WT hMC4R, basal = signal at 10^−12 M
D189A hMC4R [4] = molecular target: T4, D189A hMC4R (Homo sapiens, UniProt P32245, D189A); assay: cAMP AlphaScreen antagonist assay; type: cell-based
D189N hMC4R [5] = molecular target: T5, D189N hMC4R (Homo sapiens, UniProt P32245, D189N); assay: cAMP AlphaScreen antagonist assay; type: cell-based
D189K hMC4R [6] = molecular target: T6, D189K hMC4R (Homo sapiens, UniProt P32245, D189K); assay: cAMP AlphaScreen antagonist assay; type: cell-based
D189E hMC4R = D189E hMC4R (Homo sapiens, UniProt P32245, D189E); assay: cAMP AlphaScreen agonist / inverse agonist assay; type: cell-based; conditions: for Inverse agonist percent decrease from basal activity: D189E hMC4R
D189Q hMC4R [7] = molecular target: T1, D189Q hMC4R; assay: cAMP AlphaScreen antagonist assay; type: cell-based
D189S hMC4R [8] = molecular target: T2, D189S hMC4R; assay: cAMP AlphaScreen antagonist assay; type: cell-based; conditions: Schild analysis, agonist NDP-MSH
D189K hMC4R [9] = molecular target: T6, D189K hMC4R; assay: cAMP AlphaScreen agonist / inverse agonist assay; type: cell-based
D189N hMC4R [10] = molecular target: T5, D189N hMC4R; assay: cAMP AlphaScreen agonist / inverse agonist assay; type: cell-based; conditions: D189N hMC4R
D189K hMC4R [11] = molecular target: T6, D189K hMC4R
D189A hMC4R [12] = molecular target: T4, D189A hMC4R; assay: cAMP AlphaScreen agonist / inverse agonist assay; type: cell-based
wildtype hMC4R [13] = molecular target: T3, wildtype hMC4R; assay: cAMP AlphaScreen antagonist assay; type: cell-based; conditions: hMC4R
mMC4R = conditions: cited from earlier work
[14] = molecular target: T7, human melanocortin-4 receptor (hMC4R), wild type, N-terminal FLAG-tagged (human, UniProt P32245 1-332); assay: radioligand binding
[15] = molecular target: T7, human melanocortin-4 receptor (hMC4R), …; assay: cell-based or functional assay
[16] = molecular target: T7, human melanocortin-4 receptor (hMC4R), …; assay: radioligand binding; remark: listed apart in the source
[17] = molecular target: T8, D189K mutant hMC4R, N-terminal FLAG-tagged (human, UniProt P32245 1-332, D189K); assay: radioligand binding
[18] = molecular target: T9, D189S mutant hMC4R, N-terminal FLAG-tagged (human, UniProt P32245 1-332, D189S); assay: radioligand binding
[19] = molecular target: T10, D189Q mutant hMC4R, N-terminal FLAG-tagged (human, UniProt P32245 1-332, D189Q); assay: radioligand binding
[20] = molecular target: T11, D189N mutant hMC4R, N-terminal FLAG-tagged (human, UniProt P32245 1-332, D189N); assay: radioligand binding
[21] = molecular target: T12, D189A mutant hMC4R, N-terminal FLAG-tagged (human, UniProt P32245 1-332, D189A); assay: radioligand binding
[22] = molecular target: T13, D189E mutant hMC4R, N-terminal FLAG-tagged (human, UniProt P32245 1-332, D189E); assay: radioligand binding
[23] = molecular target: T8, D189K mutant hMC4R, N-terminal …; assay: cell-based or functional assay
[24] = molecular target: T9, D189S mutant hMC4R, N-terminal …; assay: cell-based or functional assay
[25] = molecular target: T10, D189Q mutant hMC4R, N-terminal …; assay: cell-based or functional assay
[26] = molecular target: T11, D189N mutant hMC4R, N-terminal …; assay: cell-based or functional assay
[27] = molecular target: T12, D189A mutant hMC4R, N-terminal …; assay: cell-based or functional assay
[28] = molecular target: T13, D189E mutant hMC4R, N-terminal …; assay: cell-based or functional assay

Chain of D189E hMC4R (P32245 whole entry D189E): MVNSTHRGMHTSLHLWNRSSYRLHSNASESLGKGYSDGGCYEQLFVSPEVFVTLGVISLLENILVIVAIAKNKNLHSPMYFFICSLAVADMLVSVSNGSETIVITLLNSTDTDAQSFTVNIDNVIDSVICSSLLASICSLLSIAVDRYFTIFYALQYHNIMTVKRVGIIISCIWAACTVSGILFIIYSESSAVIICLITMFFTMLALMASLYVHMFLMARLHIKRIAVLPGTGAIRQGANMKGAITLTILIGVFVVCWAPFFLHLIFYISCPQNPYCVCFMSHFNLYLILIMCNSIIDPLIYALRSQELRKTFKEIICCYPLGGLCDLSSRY
T6 sequence (P32245 whole entry D189K): as the sequence (P32245 whole entry D189E) above, with E189K counted along it
T1 sequence (P32245 whole entry D189Q): as the sequence (P32245 whole entry D189E) above, with E189Q counted along it
T2 sequence (P32245 whole entry D189S): as the sequence (P32245 whole entry D189E) above, with E189S counted along it
T3 sequence (P32245 whole entry): as the sequence (P32245 whole entry D189E) above, with E189D counted along it
T7 sequence (P32245 whole entry): as the sequence (P32245 whole entry D189E) above, with E189D counted along it
T13 sequence (P32245 whole entry D189E): as the sequence (P32245 whole entry D189E) above
T8 sequence (P32245 whole entry D189K): as the sequence (P32245 whole entry D189E) above, with E189K counted along it
T10 sequence (P32245 whole entry D189Q): as the sequence (P32245 whole entry D189E) above, with E189Q counted along it
T9 sequence (P32245 whole entry D189S): as the sequence (P32245 whole entry D189E) above, with E189S counted along it
T4 sequence (P32245 whole entry D189A): as the sequence (P32245 whole entry D189E) above, with E189A counted along it
T12 sequence (P32245 whole entry D189A): as the sequence (P32245 whole entry D189E) above, with E189A counted along it
T11 sequence (P32245 whole entry D189N): as the sequence (P32245 whole entry D189E) above, with E189N counted along it
T5 sequence (P32245 whole entry D189N): as the sequence (P32245 whole entry D189E) above, with E189N counted along it

## C[C@@H]1NC(=O)[C@H](CC(=O)O)NC(=O)[C@H](Cc2ccccc2)NC(=O)[C@H](Cc2ccccc2)NC(=O)[C@H](CCCNC(=N)N)NC(=O)[C@@H]2CCCN2C(=O)[C@H]2CCCN2C(=O)[C@H](Cc2ccccc2)NC1=O [MDE3–119-4c, c[Pro-Arg-Phe-Phe-Asp-Ala-Phe-DPro]]
D189Q hMC4R [1]
  EC50: 7000 nM
  Inverse agonist percent decrease from basal activity: −45%
D189S hMC4R [2]
  Inverse agonist percent decrease from basal activity: −15%
Wildtype hMC4R [3]
  Inverse agonist percent decrease from basal signal: −35%
D189A hMC4R [4]
  Kb: > 3160 nM
D189N hMC4R [5]
  Kb: 398 nM
D189K hMC4R [6]
  Kb: > 3160 nM
D189E hMC4R
  EC50: 3000 nM
  Inverse agonist percent decrease from basal activity: −40%
D189Q hMC4R [7]
  Kb: 1580 nM

## agouti-related protein (AGRP86–132) [hAGRP(86–132), reference compound]
D189Q hMC4R [1]
  Inverse agonist percent decrease from basal activity: 17±5 (−35%)
D189S hMC4R [8]
  Antagonist pA2: 8.2±0.2
D189K hMC4R [9]
  Inverse agonist activity: no apparent inverse agonist activity
D189N hMC4R [10]
  Inverse agonist percent decrease from basal activity: 30±10 (−10%)
D189S hMC4R [2]
  Inverse agonist percent decrease from basal activity: 20±10 (−20%)
Wildtype hMC4R [3]
  Inverse agonist percent decrease from basal signal: 2.4±0.5 (−35%)
Wildtype hMC4R [3]; listed as AGRP
  Inverse agonist percent decrease from basal signal: 35%
D189K hMC4R [11]
  Decreased I125-AGRP binding affinity versus wildtype: 10 fold
D189E hMC4R
  Inverse agonist percent decrease from basal activity: 4.4±0.1 (−35%)
D189A hMC4R [12]
  Inverse agonist activity: no apparent inverse agonist activity

## c[Pro-Arg-Phe-Phe-Phe-Ala-Phe-DPro] [MDE3–119-14c]
Wildtype hMC4R [13]
  Decrease in antagonist potency relative to MDE3–119-8c: 80 fold
mMC4R
  Previously decreased antagonist potency (comparator not restated): 50–100 fold

B1: human agouti-related protein hAGRP(86–132) (domain or fragment, UniProt O00253 86-132, looked up)
chain: RCVRLHESCLGQQVPCCDPCATCYCRFFNAFCYCRKLGTAMNPCSRT
[14]
  IC50: 12 nM
[15]
  pA2, antagonism of NDP-MSH (Schild analysis), cAMP AlphaScreen, HEK293 cells: 8.8
[16]
  IC50: 12 nM
[17]
  IC50: 150 nM
[18]
  IC50: 12.5 nM
[19]
  IC50: 10 nM
[20]
  IC50: 10.5 nM
[21]
  IC50: > 1000 nM
[22]
  IC50: 6 nM
[23]
  pA2, antagonism of NDP-MSH (Schild analysis), cAMP AlphaScreen, HEK293 cells: 7.2
[24]
  pA2, antagonism of NDP-MSH (Schild analysis), cAMP AlphaScreen, HEK293 cells: 8.2
[25]
  pA2, antagonism of NDP-MSH (Schild analysis), cAMP AlphaScreen, HEK293 cells: 8.1
[26]
  pA2, antagonism of NDP-MSH (Schild analysis), cAMP AlphaScreen, HEK293 cells: 8.4
[27]
  pA2, antagonism of NDP-MSH (Schild analysis), cAMP AlphaScreen, HEK293 cells: 6.9
[28]
  pA2, antagonism of NDP-MSH (Schild analysis), cAMP AlphaScreen, HEK293 cells: 8.8

Source: publication PMC7951137 (ACS chemical neuroscience, 2021)
